Laboratory results reported in US10800789B2, “Antiviral compounds” (Gilead Pharmasset LLC, priority 2012, dated 2020).
Where two headings read alike, the source gives them in different places.

What was measured:
[1] = test system: NS5A chimeric genotype 2a JFH-1 replicon with genotype 2b MD2b-1 strain NS5A gene (M31 present); experiment: Replicon assay, genotype 2b NS5A chimera; type: cell-based, HCV; details: Hepatitis C virus
Description: (§1) Evaluation of Cell-Based Anti-HCV Activity:
(§2) Antiviral potency (EC50) was determined using a Renilla luciferase (RLuc)-based HCV replicon reporter assay. To perform the assay for genotype 1 and 2a JFH-1, stable HCV 1a RLuc replicon cells (harboring a dicistronic genotype 1a H77 replicon that encodes a RLuc reporter), stable HCV 1b RLuc replicon cells (harboring a dicistronic genotype 1b Con1 replicon that encodes a RLuc reporter), or stable HCV 2a JFH-1 Rluc replicon cells (harboring a dicistronic genotype 2a JFH-1 replicon that encodes a RLuc reporter; with L31 present in NS5A) were dispensed into 384-well plates for EC50 assays. To perform the assay for genotype 2a (with M31 present in NS5A) or 2b, NS5A chimeric genotype 2a JFH-1 replicons that encodes a RLuc-Neo reporter and either genotype 2a J6 strain NS5A gene or genotype 2b MD2b-1 strain NS5A gene (both with M31 present) respectively, were either transiently transfected (t) into Huh-Lunet cells or were established as stably replicating replicon cells (s) is provided. Either cells were dispensed into 384-well plates for EC50 assays. To perform the assay for genotype 3 and 4, NS5A chimeric genotype 1b Con1 replicons that encodes a Pi-RLuc reporter and either genotype 3a S52 strain NS5A gene or genotype 4a ED43 strain NS5A gene respectively, were transiently transfected (t) into Huh-Lunet cells, which were subsequently dispensed into 384-well plates. Compounds were dissolved in DMSO at a concentration of 10 mM and diluted in DMSO either manually or using an automated pipeting instrument. Serially 3-fold diluted compounds were either manually mixed with cell culture media and added to the seeded cells or directly added to the cells using an automated instrument. DMSO was used as a negative (solvent; no inhibition) control, and the protease inhibitor ITMN-191 was included at a concentration>100×EC50 as a positive control. 72 hours later, cells were lysed and Renilla luciferase activity quantified as recommended by the manufacturer (Promega-Madison, Wis.). Non-linear regression was performed to calculate EC50 values.

[2] = test system: stable HCV 1a RLuc replicon cells (dicistronic genotype 1a H77 replicon); experiment: Renilla luciferase HCV replicon reporter assay, genotype 1a; type: cell-based; details: Hepatitis C virus, 72 h, stable 1a H77 RLuc replicon cells
Description: as §1, §2

[3] = test system: NS5A chimeric genotype 2a JFH-1 replicon with genotype 2a J6 strain NS5A gene (M31 present); experiment: Replicon assay, genotype 2a J6 NS5A chimera; type: cell-based, HCV; details: Hepatitis C virus
Description: as §1, §2

[4] = test system: NS5A chimeric genotype 1b Con1 replicon with genotype 4a ED43 strain NS5A gene; experiment: Replicon assay, genotype 4a NS5A chimera; type: cell-based, HCV; details: Hepatitis C virus
[5] = test system: stable HCV 1b RLuc replicon cells (dicistronic genotype 1b Con1 replicon); experiment: Renilla luciferase HCV replicon reporter assay, genotype 1b; type: cell-based; details: Hepatitis C virus, 72 h, stable 1b Con1 RLuc replicon cells, 72 hours; read-out: 1b
Description: as §1, §2

[6] = test system: NS5A chimeric genotype 1b Con1 replicon with genotype 3a S52 strain NS5A gene; experiment: Replicon assay, genotype 3a NS5A chimera; type: cell-based, HCV; details: Hepatitis C virus
[7] = test system: stable HCV 2a JFH-1 Rluc replicon cells (L31 present in NS5A); experiment: Renilla luciferase HCV replicon reporter assay, genotype 2a JFH-1; type: cell-based; details: Hepatitis C virus
Description: as §1, §2

[8] = 2BS, read-out: 2b (s), stably replicating replicon cells (s), activity range
[9] = read-out: 2b (s) (nM), genotype 2b MD2b-1 NS5A chimeric replicon (M31), stably replicating replicon cells (s)
[10] = read-out: 2b (t) (nM), genotype 2b MD2b-1 NS5A chimeric replicon (M31), transiently transfected (t)
[11] = read-out: 2b (t), transiently transfected (t) into Huh-Lunet cells, activity range
[12] = read-out: 2a J6 (t) (nM), genotype 2a J6 NS5A chimeric replicon (M31), transiently transfected (t) into Huh-Lunet cells
[13] = read-out: 2a J6 (t), transiently transfected (t) into Huh-Lunet cells, activity range
[14] = read-out: 4a (s) (nM), genotype 4a NS5A chimeric replicon, stable replicon cells (s)
[15] = read-out: 4a (s), (s), activity range
[16] = read-out: 3a (s) (nM), genotype 3a NS5A chimeric replicon, stable replicon cells (s)
[17] = read-out: 3a (s), (s), activity range
[18] = read-out: 2a JFH (nM), genotype 2a JFH-1 replicon (L31 in NS5A), stable cells
[19] = read-out: 2a JFH, stable 2a JFH-1 Rluc replicon cells, L31 in NS5A, activity range

SMILES	EC50 [1, 8] [nM]	EC50 [1, 9] [nM]	EC50 [1, 10] [nM]	EC50 [1, 11] [nM]	EC50 [2] [nM]	EC50 ([2]; activity range) [nM]	EC50 [3, 12] [nM]	EC50 [3, 13] [nM]	EC50 [4, 14] [nM]	EC50 [4, 15] [nM]	EC50 [5] [nM]	EC50 [6, 16] [nM]	EC50 [6, 17] [nM]	EC50 [7, 18] [nM]	EC50 [7, 19] [nM]	EC50 ([6]; read-out: 3a (t) (nM), genotype 3a NS5A chimeric replicon, transiently transfected (t)) [nM]	EC50 ([6]; read-out: 3a (t), transiently transfected (t) into Huh-Lunet cells, activity range) [nM]
COC[C@H]1C[C@@H](c2ncc(-c3ccc4c(c3)COc3cc5c(ccc6nc([C@@H]7CC[C@H](C)N7C(=O)[C@@H](NC(=O)OC)[C@@H](C)OC)[nH]c65)cc3-4)[nH]2)N(C(=O)[C@@H](NC(=O)OC)[C@@H](C)OC)C1 [FX, Methyl {(2S,3R)-3-methoxy-1-[(2S,5S)-2-(9-{2-[(2S,4S)-1-[N-(methoxycarbonyl)-O-methyl-L-threonyl]-4-(methoxymethyl)pyrrolidin-2-yl]-1H-imidazol-5-yl}-1,11-dihydroisochromeno[4′,3′:6,7]naphtho[1,2-d]imidazol-2-yl)-5-methylpyrrolidin-1-yl]-1-oxobutan-2-yl}carbamate]	0.1 to 0.999	0.288	0.122	0.1 to 0.999	0.041	< 0.1	0.064	< 0.1	0.031	< 0.1	0.06	0.243	0.1 to 0.999	0.024	< 0.1		
COC(=O)N[C@H](C(=O)N1[C@@H](C)CC[C@H]1c1ncc(-c2ccc3c(c2)COc2cc4c(ccc5nc([C@@H]6CC[C@H](C)N6C(=O)[C@@H](NC(=O)OC(C)(C)C)C(C)(C)O)[nH]c54)cc2-3)[nH]1)C(C)C [HV]	> 44	≥ 44.4			3.65	1 to 44	≥ 44.4	> 44	1.27	1 to 44	0.091	12.6	1 to 44	1.87	1 to 44		
COC(=O)N[C@H](C(=O)N1[C@H](c2ncc(-c3ccc4c(c3)COc3cc5c(ccc6nc([C@@H]7CC[C@H](C)N7C(=O)[C@@H](NC(=O)OC)C7CCOCC7)[nH]c65)cc3-4)[nH]2)C[C@@H]2CCC[C@@H]21)C(C)C [IY]	< 0.1	0.069			0.023	< 0.1	0.047	< 0.1	0.019	< 0.1	0.03	0.045	< 0.1	0.012	< 0.1		
COC(=O)N[C@H](C(=O)N1C[C@@H](C)C[C@H]1c1nc2ccc3cc4c(cc3c2[nH]1)OCc1cc(-c2cnc([C@@H]3CC[C@H](C)N3C(=O)[C@@H](NC(=O)OC)C(C)(C)C)[nH]2)ccc1-4)C(C)C [HX]	1 to 44	2.92			0.011	< 0.1	3.28	1 to 44	0.014	< 0.1	0.02	0.266	0.1 to 0.999	0.027	< 0.1		
COC(=O)N[C@H](C(=O)N1[C@@H](C)CC[C@H]1c1ncc(-c2ccc3c(c2)COc2cc4c(ccc5nc([C@@H]6CC[C@H](C)N6C(=O)[C@@H](NC(=O)OC)C6CCCCC6)[nH]c54)cc2-3)[nH]1)C(C)C [HE]	1 to 44	1.59			0.011	< 0.1	0.677	0.1 to 0.999	0.014	< 0.1	0.02	0.074	< 0.1	0.017	< 0.1		
CC[C@H]1CC[C@@H](c2nc3ccc4cc5c(cc4c3[nH]2)OCc2cc(-c3cnc([C@@H]4CC[C@H](C)N4C(=O)[C@@H](NC(=O)OC)C4CCOCC4)[nH]3)ccc2-5)N1C(=O)[C@@H](NC(=O)OC)C(C)C [IR]	< 0.1	0.081			0.018	< 0.1	0.084	< 0.1	0.017	< 0.1	0.021	0.091	< 0.1	0.018	< 0.1		
COC(=O)N[C@H](C(=O)N1CCC[C@H]1c1ncc(-c2ccc3c(c2)COc2cc4c(ccc5nc([C@@H]6CCCN6C(=O)[C@@H](NC(=O)OC)[C@@H](C)OC)[nH]c54)cc2-3)[nH]1)[C@@H](C)OC [HG]	0.1 to 0.999	0.733			0.06	< 0.1	0.185	0.1 to 0.999	0.033	< 0.1	0.109	0.129	0.1 to 0.999	0.021	< 0.1		
COC(=O)N[C@H](C(=O)N1C[C@@H](C)C[C@H]1c1ncc(-c2ccc3c(c2)COc2cc4c(ccc5nc([C@@H]6CC[C@H](C)N6C(=O)[C@@H](NC(=O)OC)[C@@H](C)OC)[nH]c54)cc2-3)[nH]1)[C@@H](C)OC [DZ, Methyl [(2S,3R)-3-methoxy-1-{(2S,5S)-2-[9-(2-{(2S,5S)-1-[N-(methoxycarbonyl)-O-methyl-L-threonyl]-4-methylpyrrolidin-2-yl}-1H-imidazol-5-yl)-1,11-dihydroisochromeno[4′,3′:6,7]naphtho[1,2-d]imidazol-2-yl]-5-methylpyrrolidin-1-yl}-1-oxobutan-2-yl]carbamate]	0.1 to 0.999	0.173	0.072	< 0.1	0.021	< 0.1	0.054	< 0.1	0.02	< 0.1	0.035	0.089	< 0.1	0.016	< 0.1		
COC(=O)NC(C(=O)N1[C@@H](C)CC[C@H]1c1nc2ccc3cc4c(cc3c2[nH]1)OCc1cc(-c2cnc([C@@H]3CC[C@H](C)N3C(=O)[C@@H](NC(=O)OC)[C@@H](C)OC)[nH]2)ccc1-4)C1CCOCC1 (stereo partly drawn) [EG, methyl{2-[(2S,5S)-2-(9-{2-[(2S,5S)-1-{(2S,3R)-3-methoxy-2-[(methoxycarbonyl)amino]butanoyl}-5-methylpyrrolidin-2-yl]-1H-imidazol-5-yl}-1,11-dihydroisochromeno[4′,3′:6,7]naphtho[1,2-d]imidazol-2-yl)-5-methylpyrrolidin-1-yl]-2-oxo-1-(tetrahydro-2H-pyran-4-yl)ethyl}carbamate]	< 0.1	0.072			0.036	< 0.1	0.023	< 0.1	0.016	< 0.1	0.045	0.076	< 0.1	0.022	< 0.1	0.103	0.1 to 0.999
COC(=O)N[C@H](C(=O)N1[C@@H](C)CC[C@H]1c1nc2ccc3cc4c(cc3c2[nH]1)OCc1cc(-c2cnc([C@@H]3C[C@H](F)CN3C(=O)[C@@H](NC(=O)OC)[C@@H](C)OC)[nH]2)ccc1-4)C(C)C [HU]	1 to 44	3.56			0.016	< 0.1	3.17	1 to 44	0.012	< 0.1	0.055	0.083	< 0.1	0.026	< 0.1		
